Test results taken from US20240101544A1, “INHIBITORS OF QPCTL AND QPCT” (priority 2022, published 2024).
pIC50: −log10 of the molar value.

How the values were obtained:
QPCT (rhQPCT) = QPCT (rhQPCT) (Homo sapiens (Human), UniProt Q16769); test: QPCT Enzymatic Activity Assay (coupled-enzyme fluorescent assay, H-Gln-AMC substrate); type: biochemical; conditions: rhQPCT 10-12 nM, 10 μM H-Gln-AMC; read-out: QPCT Inhibition IC50
Protocol: QPCT activity was measured in a coupled-enzyme assay using the QPCT substrate, glutamine-7-amido-4-methylcoumarin (H-Gln-AMC, Bachem), which is converted to pyroglutamyl-AMC by QPCT. Pyroglutamyl-AMC is then converted to the fluorescent molecule, AMC, by incubation with the human enzyme pyroglutamyl peptidase-1 (PGPEP-1). […] Following the incubation, H-Gln-AMC substrate was diluted in assay buffer and added to each well for a final concentration of 10 μM. The reaction was incubated for 60 min at 37° C., before stopping it by boiling at 100° C. for 5 minutes and cooling the plate at 4° C. for 3 minutes. […] Following incubation, the fluorescence was measured with a plate reader using excitation at 380 nm and emission at 460 nm. […] Concentration-response-curves and IC50 values (Table 17) were generated using Collaborative Drug Discovery software.

QPCTL = QPCTL (Homo sapiens (Human), UniProt Q9NXS2); test: QPCTL Enzymatic Activity Assay (coupled-enzyme fluorescent assay, H-Gln-AMC substrate); type: biochemical; conditions: recombinant truncated human QPCTL 10-12 nM, 10 μM H-Gln-AMC; read-out: QPCTL Inhibition IC50
Protocol: Protein expression was induced when the bacterial culture OD600 was approximately 0.7 using 1 mM IPTG and the cells incubated at 20° C. for approximately 16 hours. The QPCTL was purified using nickel column purification, digested by TEV, followed by a second nickel column purification. The protein was further purified by size-exclusion chromatography using a Superdex™ 75 column. The final protein was concentrated using ultrafiltration tubes at a molecular weight cutoff of 10 kilodaltons and stored frozen in protein buffer (25 mM Tris pH 8.3, 150 mM NaCl).
QPCTL activity was measured in a coupled-enzyme assay using the QPCTL substrate, glutamine-7-amido-4-methylcoumarin (H-Gln-AMC, Bachem), which is converted to pyroglutamyl-AMC by QPCTL. Pyroglutamyl-AMC is then converted to the fluorescent molecule, AMC, by incubation with the human enzyme pyroglutamyl peptidase-1. […] Final concentrations of DMSO and test compounds were 2% and 30-100 μM, respectively. Following the incubation, H-Gln-AMC substrate was diluted in assay buffer and added to each well for a final concentration of 10 μM. The reaction was incubated for 60 min at 37° C., before stopping it by boiling at 100° C. for 5 minutes and cooling the plate at 4° C. for 3 minutes. […] Following incubation, the fluorescence was measured with a plate reader using excitation at 380 nm and emission at 460 nm. […] Concentration-response-curves and IC50 values (Table 17) were generated using curve fit software.

Chain of QPCTL (Q9NXS2 53-382): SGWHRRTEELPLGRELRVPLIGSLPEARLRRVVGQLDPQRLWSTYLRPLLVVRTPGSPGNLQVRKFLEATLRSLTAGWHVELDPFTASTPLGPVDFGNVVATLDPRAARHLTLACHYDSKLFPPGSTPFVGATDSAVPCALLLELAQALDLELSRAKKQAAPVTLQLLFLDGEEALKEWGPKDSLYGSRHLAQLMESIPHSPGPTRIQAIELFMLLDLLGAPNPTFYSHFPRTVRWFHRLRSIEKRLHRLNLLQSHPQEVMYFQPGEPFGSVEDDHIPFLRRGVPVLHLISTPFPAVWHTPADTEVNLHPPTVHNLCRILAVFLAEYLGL
Chain of QPCT (rhQPCT) (Q16769 29-361): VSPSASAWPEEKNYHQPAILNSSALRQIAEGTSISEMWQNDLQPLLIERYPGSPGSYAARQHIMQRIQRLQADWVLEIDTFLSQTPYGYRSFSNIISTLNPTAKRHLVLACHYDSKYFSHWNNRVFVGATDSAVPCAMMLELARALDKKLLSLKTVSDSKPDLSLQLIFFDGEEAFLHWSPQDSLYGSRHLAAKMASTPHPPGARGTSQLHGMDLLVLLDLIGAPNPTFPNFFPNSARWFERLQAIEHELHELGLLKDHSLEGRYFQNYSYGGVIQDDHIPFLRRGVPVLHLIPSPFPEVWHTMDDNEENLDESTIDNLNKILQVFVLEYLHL

Compound	pIC50 (QPCT (rhQPCT))	pIC50 (QPCTL)
Cc1cc(-c2ccc(-c3cn[nH]c3)c(C#N)c2N2CCC(c3nncn3C)CC2)cnn1 [Example 74, 2-(4-(4-methyl-4H-1,2,4-triazol-3-yl)piperidin-1-yl)-3-(6-methylpyridazin-4-yl)-6-(1H-pyrazol-4-yl)benzonitrile]	> 7.00	> 7.00
Cn1cnnc1C1[C@H]2CN(c3c(C#N)cccc3-c3ccc(F)nc3)C[C@@H]12 (stereo partly drawn) [Example 75, 3-(6-fluoropyridin-3-yl)-2-((1R,5S)-6-(4-methyl-4H-1,2,4-triazol-3-yl)-3-azabicyclo[3.1.0]hexan-3-yl)benzonitrile]	6.00 to 7.00	6.00 to 7.00
Cn1ncc(-c2cccc(C#N)c2N2CCC(c3nncn3C)CC2)n1 [Example 99, 3-(2-methyl-2H-1,2,3-triazol-4-yl)-2-(4-(4-methyl-4H-1,2,4-triazol-3-yl)piperidin-1-yl)benzonitrile]	> 7.00	6.00 to 7.00
Cn1cnnc1C1CCN(c2c(C#N)cccc2-c2ccc(F)c(F)c2)CC1 [Example 102, 3′,4′-difluoro-2-(4-(4-methyl-4H-1,2,4-triazol-3-yl)piperidin-1-yl)-[1,1′-biphenyl]-3-carbonitrile]	> 7.00	6.00 to 7.00
Cn1cnnc1C1CCN(c2c(C#N)cccc2-c2ccc(F)cc2F)CC1 [Example 103, 2′,4′-difluoro-2-(4-(4-methyl-4H-1,2,4-triazol-3-yl)piperidin-1-yl)-[1,1′-biphenyl]-3-carbonitrile]	> 7.00	6.00 to 7.00
Cn1cnnc1C1CCN(c2c(C#N)cccc2-c2cnnn2C)CC1 [Example 104, 3-(1-methyl-1H-1,2,3-triazol-5-yl)-2-(4-(4-methyl-4H-1,2,4-triazol-3-yl)piperidin-1-yl)benzonitrile]	6.00 to 7.00	6.00 to 7.00
Cn1cnnc1C1CCN(c2c(C#N)cccc2-c2cccc(C=O)c2)CC1 [Example 110, 3′-formyl-2-(4-(4-methyl-4H-1,2,4-triazol-3-yl)piperidin-1-yl)-[1,1′-biphenyl]-3-carbonitrile]	> 7.00	6.00 to 7.00
Cn1cnnc1C1CCN(c2c(C#N)cccc2-c2ccc(B(O)O)cc2)CC1 [Example 111, (3′-cyano-2′-(4-(4-methyl-4H-1,2,4-triazol-3-yl)piperidin-1-yl)-[1,1′-biphenyl]-4-yl)boronic acid]	> 7.00	6.00 to 7.00
Cn1cnnc1C1CCN(c2c(C#N)cccc2-c2cccc(B(O)O)c2)CC1 [Example 112, (3′-cyano-2′-(4-(4-methyl-4H-1,2,4-triazol-3-yl)piperidin-1-yl)-[1,1′-biphenyl]-3-yl)boronic acid]	> 7.00	> 7.00
Cn1cnnc1C1CCN(c2c(C#N)cccc2-c2ccc3[nH]nc(O)c3c2)CC1 [Example 113, 3-(3-hydroxy-1H-indazol-5-yl)-2-(4-(4-methyl-4H-1,2,4-triazol-3-yl)piperidin-1-yl)benzonitrile]	> 7.00	> 7.00
Cn1cnnc1C1CCN(c2c(C#N)cccc2-c2cncc(Br)c2)CC1 [Example 114, 3-(5-bromopyridin-3-yl)-2-(4-(4-methyl-4H-1,2,4-triazol-3-yl)piperidin-1-yl)benzonitrile]	> 7.00	> 7.00
Cn1cnnc1C1CCN(c2c(C#N)cccc2-c2ccc(O)nc2)CC1 [Example 116, 3-(6-hydroxypyridin-3-yl)-2-(4-(4-methyl-4H-1,2,4-triazol-3-yl)piperidin-1-yl)benzonitrile]	> 7.00	> 7.00
Cn1cnnc1C1CCN(c2c(C#N)cccc2-c2cncc(OS(=O)(=O)F)c2)CC1 [Example 118, 5-(3-cyano-2-(4-(4-methyl-4H-1,2,4-triazol-3-yl)piperidin-1-yl)phenyl)pyridin-3-yl sulfurofluoridate]	> 7.00	> 7.00
Cn1cnnc1C1CCN(c2c(C#N)cccc2-c2ccc(OS(=O)(=O)F)nc2)CC1 [Example 119, 5-(3-cyano-2-(4-(4-methyl-4H-1,2,4-triazol-3-yl)piperidin-1-yl)phenyl)pyridin-2-yl sulfurofluoridate]	6.00 to 7.00	> 7.00
Cn1cnnc1C1CCN(c2c(C#N)cccc2-c2ccc3c(c2)B(O)OC3)CC1 [Example 121, 3-(1-hydroxy-1,3-dihydrobenzo[c][1,2]oxaborol-6-yl)-2-(4-(4-methyl-4H-1,2,4-triazol-3-yl)piperidin-1-yl)benzonitrile]	6.00 to 7.00	6.00 to 7.00
Cn1cnnc1C1CCN(c2c(C#N)cccc2-c2cnc3cn[nH]c3c2)CC1 [Example 125, 2-(4-(4-methyl-4H-1,2,4-triazol-3-yl)piperidin-1-yl)-3-(1H-pyrazolo[4,3-b]pyridin-6-yl)benzonitrile]	> 7.00	6.00 to 7.00
Cn1ccc(-c2ccc(-c3cncc(B(O)O)c3)c(N3CCC(c4nncn4C)CC3)c2C#N)n1 [Example 126, (5-(3-cyano-4-(1-methyl-1H-pyrazol-3-yl)-2-(4-(4-methyl-4H-1,2,4-triazol-3-yl)piperidin-1-yl)phenyl)pyridin-3-yl)boronic acid]	> 7.00	> 7.00
Cn1cnnc1N1CCN(c2c(C#N)ccc(F)c2-c2ccc(F)nc2)CC1 [Example 127, 4-fluoro-3-(6-fluoropyridin-3-yl)-2-(4-(4-methyl-4H-1,2,4-triazol-3-yl)piperazin-1-yl)benzonitrile]	> 7.00	> 7.00
C#Cc1ccc(-c2cccc(C#N)c2N2CCC(c3nncn3C)CC2)cc1C=O [Example 128, 4′-ethynyl-3′-formyl-2-(4-(4-methyl-4H-1,2,4-triazol-3-yl)piperidin-1-yl)-[1,1′-biphenyl]-3-carbonitrile]	> 7.00	6.00 to 7.00
Cn1cnnc1N1CCN(c2c(-c3ccc(F)nc3)ccc(C3CC3)c2C#N)CC1 [Example 129, 6-cyclopropyl-3-(6-fluoropyridin-3-yl)-2-(4-(4-methyl-4H-1,2,4-triazol-3-yl)piperazin-1-yl)benzonitrile]	> 7.00	> 7.00
Cn1cnnc1C1CCN(c2c(C#N)cc(F)cc2-c2ccc(F)nc2)CC1 [Example 130, 5-fluoro-3-(6-fluoropyridin-3-yl)-2-(4-(4-methyl-4H-1,2,4-triazol-3-yl)piperidin-1-yl)benzonitrile]	5.00 to 6.00	5.00 to 6.00
Cn1ccc(-c2cc(F)c(-c3ccc(F)nc3)c(N3CCC(c4nncn4C)CC3)c2C#N)n1 [Example 131, 4-fluoro-3-(6-fluoropyridin-3-yl)-6-(1-methyl-1H-pyrazol-3-yl)-2-(4-(4-methyl-4H-1,2,4-triazol-3-yl)piperidin-1-yl)benzonitrile]	6.00 to 7.00	5.00 to 6.00
Cn1cnnc1C1CCN(c2c(C#N)c(C3CC3)cc(F)c2-c2ccc(F)nc2)CC1 [Example 135, 6-cyclopropyl-4-fluoro-3-(6-fluoropyridin-3-yl)-2-(4-(4-methyl-4H-1,2,4-triazol-3-yl)piperidin-1-yl)benzonitrile]	> 7.00	6.00 to 7.00
Cn1cnnc1N1CCN(c2c(C#N)ccnc2-c2ccc(F)nc2)CC1 [Example 136, 6′-fluoro-3-(4-(4-methyl-4H-1,2,4-triazol-3-yl)piperazin-1-yl)-[2,3′-bipyridine]-4-carbonitrile]	> 7.00	> 7.00
COc1cnc(-c2ccc(F)nc2)c(N2CCC(c3nncn3C)CC2)c1C#N [Example 137, 6′-fluoro-5-methoxy-3-(4-(4-methyl-4H-1,2,4-triazol-3-yl)piperidin-1-yl)-[2,3′-bipyridine]-4-carbonitrile]	6.00 to 7.00	5.00 to 6.00
Cn1ccc(-c2cnc(-c3ccc(F)nc3)c(N3CCC(c4nncn4C)CC3)c2C#N)n1 [Example 138, 6′-fluoro-5-(1-methyl-1H-pyrazol-3-yl)-3-(4-(4-methyl-4H-1,2,4-triazol-3-yl)piperidin-1-yl)-[2,3′-bipyridine]-4-carbonitrile]	5.00 to 6.00	< 5.00
Cn1cc(-c2cnc(-c3ccc(F)nc3)c(N3CCC(c4nncn4C)CC3)c2C#N)cn1 [Example 139, 6′-fluoro-5-(1-methyl-1H-pyrazol-4-yl)-3-(4-(4-methyl-4H-1,2,4-triazol-3-yl)piperidin-1-yl)-[2,3′-bipyridine]-4-carbonitrile]	6.00 to 7.00	< 5.00
